Measurements taken from US20260015337A1 (Trawsfynydd Therapeutics, Inc., priority 2022, published 2026).

biological target: 3CL Protease (Severe acute respiratory syndrome coronavirus 2, UniProt P0DTD1); test: 3CL Protease enzymatic activity assay (BPS Bioscience Assay Kit #78043-1, fluorescence); assay type: biochemical, SARS-CoV-2; conditions: Table A; 30 min preincubation, 40 μM substrate, 4 hours at room temperature; read-out: IC50, nM (3CL Protease enzymatic activity)
Method: For determination of 3CL Protease enzymatic activity was used Assay Kit of BPS Bioscience, San Diego, CA (Catalog #78043-1).
All samples and controls should be tested in duplicate. • 1) Just before use, dilute 0.5 M DTT 500 times into the 3CL Protease Assay Buffer to obtain a DTT concentration of 1 mM. For example, add 10 μl of 0.5 M DTT to 5 ml of assay buffer. Prepare enough DTT-containing buffer as required for the assay. Store the remaining assay buffer at −20° C. • 2) Thaw the 3CL Protease on ice. Briefly spin the tube containing the enzyme to recover the full content of the tube. Note: 3CL Protease enzyme is sensitive to freeze/thaw cycles. […] Note: The exact concentration and volume of enzyme is lot-specific and will be indicated on the tube. Calculate required dilution from the information in the tube. It may be desirable to dilute the enzyme serially to avoid using large amounts of protease assay buffer for the dilution. • 4) Add 30 μl of diluted 3CL Protease to the wells designated as “Positive Control,” “Inhibitor Control,” and “Test Inhibitor.” Add 30 μl of Assay Buffer (containing 1 mM DTT) to the “Blank” wells. • 5) Dilute the 50 μg GC376 in 200 μl of Assay Buffer to obtain a 500 μM solution. Add 10 μl of GC376 (500 μM) to the wells labeled “Inhibitor Control”. Aliquot and store the remaining solution at −80° C. • 6) Prepare the Test Inhibitor. The final concentration of DMSO in the assay should not exceed 1%. If the Test Inhibitor is dissolved in DMSO, make a 100-fold higher concentration of the compound than the highest desired concentration. Then make a 20-fold dilution in 1× Assay Buffer (containing DTT). At this step the compound concentration is 5-fold higher than the final concentration. If the test inhibitor is dissolved in water, make a 5-fold higher concentration of the test compound than the final desired concentration in the Assay buffer (containing DTT). Add 10 μl of Test Inhibitor to each well designated “Test Inhibitor”. • 7) Diluent Solution (no inhibitor): add 10 μl of assay buffer (if the test compound is water soluble and was diluted in assay buffer) or 10 μl of 5% DMSO diluted in assay buffer (if DMSO was used to dissolve the test inhibitor) to “Blank” and “Positive Control” wells.
• 8) Preincubate for 30 min at room temperature with slow shaking. • 9) Dilute the 25 μl of 3CL Protease substrate (10 mM) in 1.25 ml of the Assay Buffer containing DTT, to make a […] solution. The final concentration of the 3CL Protease substrate in a 50 μl reaction is 40 μM. • 10) Start the reaction by adding 10 μl of the substrate solution to all the wells. Seal the plate with the plate sealer and incubate for 4 hours at room temperature with slow shaking. • 11) Measure the fluorescence intensity in a microtiter plate-reader fluorometer (Tecan Spark Cyto) capable of excitation at a wavelength 360 nm and detection of emission at a wavelength 460 nm. The fluorescence intensity can also be measured kinetically. The “Blank” value is subtracted from all other values. • The % inhibition was then used to calculate the IC50 values.

Structure (SMILES) | IC50
CC1(C)CCc2[nH]c(=O)c(CC(C#N)NC(=O)[C@@H]3C4[C@H](CN3C(=O)[C@@H](NS(C)(=O)=O)C(C)(C)C)C4(C)C)cc2C1 (stereo in doubt) [Compound 128, (1R,2S,5S)—N-(1-Cyano-2-(6,6-dimethyl-2-oxo-1,2,5,6,7,8-hexahydroquinolin-3-yl)ethyl)-3-((S)-3,3-dimethyl-2-(methylsulfonamido)butanoyl)-6,6-dimethyl-3-azabicyclo[3.1.0]hexane-2-carboxamide] | 500 to 1000 nM
Cc1cc2cc(CC(C#N)NC(=O)[C@@H]3C4[C@H](CN3C(=O)[C@@H](NC(=O)C(F)(F)F)C(C)(C)C)C4(C)C)c(=O)[nH]c2cc1C (stereo in doubt) [Compound 145, (1R,2S,5S)—N-(1-cyano-2-(6,7-dimethyl-2-oxo-1,2-dihydroquinolin-3-yl)ethyl)-3-((S)-3,3-dimethyl-2-(2,2,2-trifluoroacetamido)butanoyl)-6,6-dimethyl-3-azabicyclo[3.1.0]hexane-2-carboxamide] | 50 to 100 nM
Cc1ccc2cc(CC(C#N)NC(=O)[C@@H]3C4[C@H](CN3C(=O)[C@@H](NC(=O)C(F)(F)F)C(C)(C)C)C4(C)C)c(=O)[nH]c2c1 (stereo in doubt) [Compound 146, (1R,2S,5S)—N-(1-Cyano-2-(7-methyl-2-oxo-1,2-dihydroquinolin-3-yl)ethyl)-3-((S)-3,3-dimethyl-2-(2,2,2-trifluoroacetamido)butanoyl)-6,6-dimethyl-3-azabicyclo[3.1.0]hexane-2-carboxamide] | 50 to 100 nM
Cc1ccc2[nH]c(=O)c(C[C@@H](C#N)NC(=O)[C@@H]3C4[C@H](CN3C(=O)[C@@H](NS(C)(=O)=O)C(C)(C)C)C4(C)C)cc2c1 (stereo in doubt) [Compound 147, (1R,2S,5S)—N-[(1S)-1-cyano-2-(6-methyl-2-oxo-1H-quinolin-3-yl)ethyl]-3-[(2S)-2-(methanesulfonamido)-3,3-dimethyl-butanoyl]-6,6-dimethyl-3-azabicyclo[3.1.0]hexane-2-carboxamide] | < 50 nM
Cc1ccc2[nH]c(=O)c(C[C@H](C#N)NC(=O)[C@@H]3C4[C@H](CN3C(=O)[C@@H](NS(C)(=O)=O)C(C)(C)C)C4(C)C)cc2c1 (stereo in doubt) [Compound 148, (1R,2S,5S)—N-[(1R)-1-cyano-2-(6-methyl-2-oxo-1H-quinolin-3-yl)ethyl]-3-[(2S)-2-(methanesulfonamido)-3,3-dimethyl-butanoyl]-6,6-dimethyl-3-azabicyclo[3.1.0]hexane-2-carboxamide] | ≥ 1000 nM
Cc1ccc2[nH]c(=O)c(CC(C#N)NC(=O)[C@@H]3C4[C@H](CN3C(=O)[C@@H](Nc3nc(C)cs3)C(C)(C)C)C4(C)C)cc2c1 (stereo in doubt) [Compound 151, (1R,2S,5S)—N-(1-Cyano-2-(6-methyl-2-oxo-1,2-dihydroquinolin-3-yl)ethyl)-3-((S)-3,3-dimethyl-2-((4-methylthiazol-2-yl)amino)butanoyl)-6,6-dimethyl-3-azabicyclo[3.1.0]hexane-2-carboxamide] | 500 to 1000 nM
Cc1ccc2[nH]c(=O)c(CC(C#N)NC(=O)[C@@H]3C4[C@H](CN3C(=O)[C@@H](Nc3ncc(C)s3)C(C)(C)C)C4(C)C)cc2c1 (stereo in doubt) [Compound 152, (1R,2S,5S)—N-(1-Cyano-2-(6-methyl-2-oxo-1,2-dihydroquinolin-3-yl)ethyl)-3-((S)-3,3-dimethyl-2-((5-methylthiazol-2-yl)amino)butanoyl)-6,6-dimethyl-3-azabicyclo[3.1.0]hexane-2-carboxamide] | 100 to 250 nM
Cc1ccc2[nH]c(=O)c(CC(C#N)NC(=O)[C@@H]3C4[C@H](CN3C(=O)[C@@H](Nc3nccc(C(F)(F)F)n3)C(C)(C)C)C4(C)C)cc2c1 (stereo in doubt) [Compound 156, (1R,2S,5S)—N-(1-Cyano-2-(6-methyl-2-oxo-1,2-dihydroquinolin-3-yl)ethyl)-3-((S)-3,3-dimethyl-2-((4-(trifluoromethyl)pyrimidin-2-yl)amino)butanoyl)-6,6-dimethyl-3-azabicyclo[3.1.0]hexane-2-carboxamide] | ≥ 1000 nM
Cc1ccc2[nH]c(=O)c(C[C@@H](C#N)NC(=O)[C@@H]3C4[C@H](CN3C(=O)[C@@H](Nc3nc(C)cs3)C(C)(C)C)C4(C)C)cc2c1 (stereo in doubt) [Compound 157, (1R,2S,5S)—N—((S)-1-Cyano-2-(6-methyl-2-oxo-1,2-dihydroquinolin-3-yl)ethyl)-3-((S)-3,3-dimethyl-2-((4-methylthiazol-2-yl)amino)butanoyl)-6,6-dimethyl-3-azabicyclo[3.1.0]hexane-2-carboxamide] | 250 to 500 nM
Cc1ccc2[nH]c(=O)c(C[C@@H](C#N)NC(=O)[C@@H]3C4[C@H](CN3C(=O)[C@@H](Nc3ncc(C)s3)C(C)(C)C)C4(C)C)cc2c1 (stereo in doubt) [Compound 158, (1R,2S,5S)—N—((S)-1-Cyano-2-(6-methyl-2-oxo-1,2-dihydroquinolin-3-yl)ethyl)-3-((S)-3,3-dimethyl-2-((5-methylthiazol-2-yl)amino)butanoyl)-6,6-dimethyl-3-azabicyclo[3.1.0]hexane-2-carboxamide] | 50 to 100 nM
Cc1ccc2[nH]c(=O)c(C[C@@H](C#N)NC(=O)[C@@H]3C4[C@H](CN3C(=O)[C@@H](Nc3ccnc(C)n3)C(C)(C)C)C4(C)C)cc2c1 (stereo in doubt) [Compound 159, (1R,2S,5S)—N—((S)-1-Cyano-2-(6-methyl-2-oxo-1,2-dihydroquinolin-3-yl)ethyl)-3-((S)-3,3-dimethyl-2-((2-methylpyrimidin-4-yl)amino)butanoyl)-6,6-dimethyl-3-azabicyclo[3.1.0]hexane-2-carboxamide] | ≥ 1000 nM
Cc1ccc2[nH]c(=O)c(C[C@@H](C#N)NC(=O)[C@@H]3C4[C@H](CN3C(=O)[C@@H](Nc3nccc(C)n3)C(C)(C)C)C4(C)C)cc2c1 (stereo in doubt) [Compound 160, (1R,2S,5S)—N—((S)-1-Cyano-2-(6-methyl-2-oxo-1,2-dihydroquinolin-3-yl)ethyl)-3-((S)-3,3-dimethyl-2-((4-methylpyrimidin-2-yl)amino)butanoyl)-6,6-dimethyl-3-azabicyclo[3.1.0]hexane-2-carboxamide] | ≥ 1000 nM
Cc1ccc2[nH]c(=O)c(C[C@@H](C#N)NC(=O)[C@@H]3C4[C@H](CN3C(=O)[C@@H](Nc3ccnc(C(F)(F)F)n3)C(C)(C)C)C4(C)C)cc2c1 (stereo in doubt) [Compound 161, (1R,2S,5S)—N—((S)-1-Cyano-2-(6-methyl-2-oxo-1,2-dihydroquinolin-3-yl)ethyl)-3-((S)-3,3-dimethyl-2-((2-(trifluoromethyl)pyrimidin-4-yl)amino)butanoyl)-6,6-dimethyl-3-azabicyclo[3.1.0]hexane-2-carboxamide] | ≥ 1000 nM
Cc1ccc2[nH]c(=O)c(CC(C#N)NC(=O)[C@@H]3C4[C@H](CN3C(=O)[C@@H](NC(=O)OC(C)(C)C)C(C)(C)C)C4(C)C)cc2c1 (stereo in doubt) [Compound 171, tert-Butyl ((2S)-1-((1R,2S,5S)-2-((1-cyano-2-(6-methyl-2-oxo-1,2-dihydroquinolin-3-yl)ethyl)carbamoyl)-6,6-dimethyl-3-azabicyclo[3.1.0]hexan-3-yl)-3,3-dimethyl-1-oxobutan-2-yl)carbamate] | 250 to 500 nM
